Experimental data published in patent publication US20090062253A1, “HETEROCYCLODIAZEPINE CANNABINOID RECEPTOR MODULATORS FOR TREATMENT OF DISEASE” (KALYPSYS, INC., priority 2007, published 2009).

Experiments:
[1] = target: T1, Human CB2 (Homo sapiens, UniProt P34972); assay: Human CB2 Radioligand Binding Assay; conditions: membranes from stably transfected CHO CB2 cells; competition with [3H] CP-55,940; read-out: CB2 Ligand Binding Asssay
T1 construct: expressed in transfected cells; membrane preparation
T1 sequence (P34972 whole entry): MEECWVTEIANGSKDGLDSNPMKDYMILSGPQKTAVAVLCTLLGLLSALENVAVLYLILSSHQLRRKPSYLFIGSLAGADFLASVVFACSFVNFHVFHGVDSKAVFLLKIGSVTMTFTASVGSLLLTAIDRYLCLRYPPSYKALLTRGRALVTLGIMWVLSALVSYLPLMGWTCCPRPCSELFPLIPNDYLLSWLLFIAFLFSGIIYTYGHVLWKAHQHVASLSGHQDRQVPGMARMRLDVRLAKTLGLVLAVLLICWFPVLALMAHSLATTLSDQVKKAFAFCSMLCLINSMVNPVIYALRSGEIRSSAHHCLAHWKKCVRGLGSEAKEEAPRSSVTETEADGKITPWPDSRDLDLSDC
Procedure, shortened: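 Filtration competition against [3H]CP-55,940 at its Kd on membranes from CHO cells stably expressing human CB2; compounds at 10 uM single point or dose-response, 1% DMSO. Buffer 50 mM Tris-HCl pH 7.4, EGTA, MgCl2, 5.0 mg/ml BSA; 90 min at 30° C, scintillation read; 100 nM CP-55,940 = 100%.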

[2] = target: T2, human cannabinoid receptor type 1 (Homo sapiens, UniProt P21554); assay: Human CB1 Radioligand Binding Assay (basis of selectivity CB2 vs. CB1)
T2 construct: purchased Perkin Elmer RBHCB1M; host or cells: HEK 293 EBNA cells
T2 sequence (P21554 whole entry): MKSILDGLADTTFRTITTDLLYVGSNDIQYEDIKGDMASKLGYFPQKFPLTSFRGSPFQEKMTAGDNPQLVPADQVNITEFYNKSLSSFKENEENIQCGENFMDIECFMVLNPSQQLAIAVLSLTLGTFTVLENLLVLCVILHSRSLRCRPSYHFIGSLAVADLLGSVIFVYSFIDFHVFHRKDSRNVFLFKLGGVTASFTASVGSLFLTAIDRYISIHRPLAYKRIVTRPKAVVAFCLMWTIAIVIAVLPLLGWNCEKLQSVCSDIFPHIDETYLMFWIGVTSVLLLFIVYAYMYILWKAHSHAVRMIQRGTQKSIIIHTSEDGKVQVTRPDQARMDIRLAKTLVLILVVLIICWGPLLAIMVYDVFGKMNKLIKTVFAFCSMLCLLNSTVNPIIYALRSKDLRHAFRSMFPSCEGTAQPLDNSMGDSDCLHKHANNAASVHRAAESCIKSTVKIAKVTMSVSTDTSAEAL
Procedure, shortened: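 Filtration competition binding against [3H] CP-55,940 at its Kd, using membranes from HEK 293 EBNA cells expressing human CB1; 90 minutes at 30° C in 50 mM Tris-HCl pH 7.4, 2.5 mM EDTA, 5 mM MgCl2, 5.0 mg/ml BSA, 1% DMSO. Single point 10 uM or dose-response; 100 nM CP-55,940 defined 100% efficacy.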

Row | Molecule | IC50 (radioligand displacement) [1] [nM] | Selectivity, CB2 vs. CB1 [2]
1 | COc1ccc(COC(=O)NC2=C(c3ccc(C(C)(C)C)cc3)c3cccn3CCC2)cc1 [Example 89, (E)-4-Methoxybenzyl 9-(4-tert-butylphenyl)-6,7-dihydro-5H-pyrrolo[1,2-a]azepin-8-ylcarbamate] | > 1000 | − (− indicates < 10-fold)
2 | CC(C)(C)c1ccc(C2c3cccn3CCCC2C(=O)Nc2ccc(F)c(F)c2)cc1 (stereo not drawn) [Example 91, 9-(4-tert-Butylphenyl)-N-(3,4-difluorophenyl)-6,7,8,9-tetrahydro-5H-pyrrolo[1,2-a]azepine-8-carboxamide] | < 1000 | + (+ indicates > 10-fold)
3 | CC(C)(C)c1ccc(C2c3cccn3CCCC2C(=O)Nc2ccc(Cl)cc2)cc1 (stereo not drawn) [Example 92, 9-(4-tert-Butylphenyl)-N-(4-chlorophenyl)-6,7,8,9-tetrahydro-5H-pyrrolo[1,2-a]azepine-8-carboxamide] | < 1000 | + (+ indicates > 10-fold)
4 | CC(C)(C)c1ccc(C2c3cccn3CCCC2C(=O)Nc2ccc(C(F)(F)F)cc2)cc1 (stereo not drawn) [Example 93, 9-(4-tert-Butylphenyl)-N-(4-(trifluoromethyl)phenyl)-6,7,8,9-tetrahydro-5H-pyrrolo[1,2-a]azepine-8-carboxamide] | < 1000 | − (− indicates < 10-fold)
5 | CC(C)(C)c1ccc(C2c3cccn3CCCC2C(=O)Nc2ccc(OC(F)(F)F)cc2)cc1 (stereo not drawn) [Example 94, 9-(4-tert-Butylphenyl)-N-(4-(trifluoromethoxy)phenyl)-6,7,8,9-tetrahydro-5H-pyrrolo[1,2-a]azepine-8-carboxamide] | < 1000 | − (− indicates < 10-fold)
6 | CC(C)(C)c1ccc(C2c3cccn3CCC2C(=O)Nc2ccc(C(F)(F)F)cc2)cc1 (stereo not drawn) [Example 96, 8-(4-tert-Butylphenyl)-N-(4-(trifluoromethyl)phenyl)-5,6,7,8-tetrahydroindolizine-7-carboxamide] | > 1000 | − (− indicates < 10-fold)
7 | CC(C)(C)c1ccc(C2c3cccn3CCC2C(=O)Nc2ccc(OC(F)(F)F)cc2)cc1 (stereo not drawn) [Example 97, 8-(4-tert-Butylphenyl)-N-(4-(trifluoromethoxy)phenyl)-5,6,7,8-tetrahydroindolizine-7-carboxamide] | > 1000 | − (− indicates < 10-fold)
8 | CC(C)(C)c1ccc(C2[C@@H]3CCCN3CCCN2C(=O)Nc2ccc(F)cc2F)cc1 (stereo partly drawn) [Example 129, (9aS)-1-(4-tert-Butylphenyl)-N-(2,4-difluorophenyl)hexahydro-1H-pyrrolo[1,2-a][1,4]diazepine-2(3H)-carboxamide] | < 1000 | + (+ indicates > 10-fold)
9 | CC(C)(C)c1ccc(C2[C@@H]3CCCN3CCCN2C(=O)Nc2ccc(F)c(F)c2)cc1 (stereo partly drawn) [Example 130, (9aS)-1-(4-tert-Butylphenyl)-N-(3,4-difluorophenyl)hexahydro-1H-pyrrolo[1,2-a][1,4]diazepine-2(3H)-carboxamide] | < 1000 | + (+ indicates > 10-fold)
10 | CC(C)(C)c1ccc(C2[C@@H]3CCCN3CCCN2C(=O)Nc2ccc(Cl)cc2)cc1 (stereo partly drawn) [Example 131, (9aS)-1-(4-tert-Butylphenyl)-N-(4-chlorophenyl)hexahydro-1H-pyrrolo[1,2-a][1,4]diazepine-2(3H)-carboxamide] | < 1000 | + (+ indicates > 10-fold)
11 | CC(C)(C)c1ccc(C2=C(C(=O)Nc3ccc(C(F)(F)F)cc3)CCn3cccc32)cc1 [Example 132, 8-(4-tert-Butylphenyl)-N-(4-(trifluoromethyl)phenyl)-5,6-dihydroindolizine-7-carboxamide] | < 1000 | − (− indicates < 10-fold)
12 | CC(C)(C)c1ccc(C2c3cccnc3CCCN2C(=O)Nc2ccc(F)cc2F)cc1 (stereo not drawn) [Example 134, 5-(4-tert-Butylphenyl)-N-(2,4-difluorophenyl)-8,9-dihydro-5H-pyrido[3,2-c]azepine-6(7H)-carboxamide] | < 1000 | + (+ indicates > 10-fold)
13 | CC(C)(C)c1ccc(C2c3cccnc3CCCN2C(=O)Nc2ccc(F)c(F)c2)cc1 (stereo not drawn) [Example 135, 5-(4-tert-Butylphenyl)-N-(3,4-difluorophenyl)-8,9-dihydro-5H-pyrido[3,2-c]azepine-6(7H)-carboxamide] | < 1000 | + (+ indicates > 10-fold)
14 | CC(C)(C)c1ccc(C2c3cccnc3CCCN2C(=O)Nc2ccc(Cl)cc2Cl)cc1 (stereo not drawn) [Example 136, 5-(4-tert-Butylphenyl)-N-(2,4-dichlorophenyl)-8,9-dihydro-5H-pyrido[3,2-c]azepine-6(7H)-carboxamide] | > 1000 | + (+ indicates > 10-fold)
15 | CC(C)(C)c1ccc(C2c3cccnc3OCCN2C(=O)Nc2ccc(F)cc2F)cc1 (stereo not drawn) [Example 138, 5-(4-tert-Butylphenyl)-N-(2,4-difluorophenyl)-2,3-dihydropyrido[3,2-f][1,4]oxazepine-4(5H)-carboxamide] | > 1000 | − (− indicates < 10-fold)
16 | CC(C)(C)c1ccc(C2c3cccnc3OCCN2C(=O)Nc2ccc(F)c(F)c2)cc1 (stereo not drawn) [Example 139, 5-(4-tert-Butylphenyl)-N-(3,4-difluorophenyl)-2,3-dihydropyrido[3,2-f][1,4]oxazepine-4(5H)-carboxamide] | > 1000 | + (+ indicates > 10-fold)
17 | CC(C)(C)c1ccc(C2c3cccnc3OCCN2C(=O)Nc2ccc(Cl)cc2Cl)cc1 (stereo not drawn) [Example 140, 5-(4-tert-Butylphenyl)-N-(2,4-dichlorophenyl)-2,3-dihydropyrido[3,2-f][1,4]oxazepine-4(5H)-carboxamide] | > 1000 | − (− indicates < 10-fold)
18 | (8,9-cis)-9-Phenyl-N-(4-(trifluoromethyl)phenyl)-6,7,8,9-tetrahydro-5H-pyrrolo[1,2-a]azepine-8-carboxamide [Example 112] | > 1000 | − (− indicates < 10-fold)
